Test results reported in publication PMC3070735, “Uremic Toxins Inhibit Transport by Breast Cancer Resistance Protein and Multidrug Resistance Protein 4 at Clinically Relevant Concentrations” (PLoS ONE, 2011).
Where a name gives a salt, the structure may show the parent alone. Read-outs that look alike come from different tables or passages of the source. Marks after values point to notes of the source that are not given here.

Assays:
MRP4 = target: T1, MRP4 (Homo sapiens, UniProt O15439); assay: Membrane vesicle transport inhibition assay: MRP4-mediated [3H]-MTX uptake; conditions: for Mode of inhibition of MRP4-mediated transport: Dixon plot, three [3H]-MTX concentrations; for IC20 at 10 min: human; for Effect on transport mediated by MRP4 / Decrease of MRP4-mediated transport compared to control: [3H]-MTX uptake; for Effect on transport mediated by MRP4: result in words; for Decrease of MRP4-mediated transport compared to control: toxin 1 mM
T1 sequence (O15439 1-1325): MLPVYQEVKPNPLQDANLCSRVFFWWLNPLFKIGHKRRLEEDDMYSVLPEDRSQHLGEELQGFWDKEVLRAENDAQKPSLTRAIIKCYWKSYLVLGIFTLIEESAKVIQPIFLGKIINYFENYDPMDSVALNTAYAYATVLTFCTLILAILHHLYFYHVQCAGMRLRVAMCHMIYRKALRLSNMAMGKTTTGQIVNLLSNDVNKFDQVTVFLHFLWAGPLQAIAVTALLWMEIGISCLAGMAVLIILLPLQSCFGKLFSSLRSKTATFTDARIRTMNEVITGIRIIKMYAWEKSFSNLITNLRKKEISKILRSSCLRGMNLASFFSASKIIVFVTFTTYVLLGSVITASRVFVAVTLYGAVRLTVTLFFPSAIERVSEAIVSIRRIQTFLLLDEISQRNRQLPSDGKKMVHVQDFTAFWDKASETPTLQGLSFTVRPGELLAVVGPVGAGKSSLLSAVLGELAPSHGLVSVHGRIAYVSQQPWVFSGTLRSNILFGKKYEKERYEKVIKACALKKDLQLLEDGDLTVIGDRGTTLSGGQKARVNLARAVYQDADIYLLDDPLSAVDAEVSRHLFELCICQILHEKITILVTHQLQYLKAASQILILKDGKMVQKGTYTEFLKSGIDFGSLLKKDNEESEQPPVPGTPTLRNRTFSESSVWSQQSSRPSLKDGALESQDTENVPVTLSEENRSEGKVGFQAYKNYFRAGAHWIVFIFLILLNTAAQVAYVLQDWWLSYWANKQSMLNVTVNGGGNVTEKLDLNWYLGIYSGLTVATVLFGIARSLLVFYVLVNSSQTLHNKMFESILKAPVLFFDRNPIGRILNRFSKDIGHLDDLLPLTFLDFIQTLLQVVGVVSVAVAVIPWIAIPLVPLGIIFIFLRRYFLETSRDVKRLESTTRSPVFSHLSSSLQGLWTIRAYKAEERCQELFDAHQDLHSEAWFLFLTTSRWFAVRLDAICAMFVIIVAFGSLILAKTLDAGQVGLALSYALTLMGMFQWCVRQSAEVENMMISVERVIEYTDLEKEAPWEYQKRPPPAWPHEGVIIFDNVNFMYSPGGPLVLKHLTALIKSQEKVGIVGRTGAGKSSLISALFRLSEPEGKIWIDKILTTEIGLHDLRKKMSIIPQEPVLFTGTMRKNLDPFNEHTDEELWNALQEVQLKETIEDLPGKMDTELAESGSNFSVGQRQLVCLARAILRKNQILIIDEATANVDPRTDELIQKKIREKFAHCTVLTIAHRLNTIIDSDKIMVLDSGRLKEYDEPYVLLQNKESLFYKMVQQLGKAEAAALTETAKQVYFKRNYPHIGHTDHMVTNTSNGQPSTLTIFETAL
Experimental: Human embryonic kidney (HEK293; purchased at American Type Culture Collection, Manassas, VA) cells were cultured in Dulbecco's modified Eagle's medium (Invitrogen life sciences, Breda, the Netherlands) containing 10% (v/v) fetal calf serum (MP Biomedicals, Uden, the Netherlands) at 37°C in a 5% (v/v) CO2 atmosphere. To functionally overexpress MRP4 and BCRP, HEK293 cells were transduced with baculoviruses of human MRP4, BCRP or enhanced yellow fluorescent protein (EYFP), generated via the Bac-to-Bac system (Invitrogen) as previously described. To transduce HEK293 cells, they were cultured in 500 cm^2 flasks until 70% confluence. Subsequently, medium was removed and 10 ml of virus and 25 ml of medium were added and incubated for 30 min at 37°C. Next, 50 ml of medium was added and after 2 h of transduction 5 mM sodium butyrate was added.
Three days after transduction, cells were harvested and pelleted by centrifugation (30 min at 4,000 x g). Afterwards, the cells were resuspended in ice-cold hypotonic TS buffer (0.5 mM sodium phosphate, 0.1 mM EDTA, pH 7.0) containing protease inhibitors (100 µM phenylmethylsulfonyl fluoride, 5 µg/ml aprotinin, 5 µg/ml leupeptin, 1 µg/ml pepstatin and 1 µg/ml E-64) and shaken for 30 min at 4°C. Cells were then centrifuged at 100,000 x g for 30 min at 4°C. […] Afterwards, supernatant was centrifuged at 100,000 x g for 1 h at 4°C. […] The protein content of samples was determined using the Bio-Rad protein assay (Veenendaal, the Netherlands), according to manufacturers recommendations. Vesicles were frozen in liquid nitrogen and stored at −80°C until use. The orientation of the membrane vesicles was not determined, since ATP-dependent uptake occurs only in inside-out vesicles.
A rapid filtration technique was used to study the uptake of [^3H]-MTX and [^3H]-E1S into MRP4 or BCRP membrane vesicles, as previously described. In short, 25 µl of TS buffer containing 4 mM ATP, 10 mM MgCl2 and radiolabeled substrate was added to 5 µl of the membrane vesicles (1.5 mg/ml). The transport assay was performed in the absence or presence of various concentrations of uremic toxins to evaluate the inhibitory effects of these compounds on MRP4-mediated [^3H]-MTX uptake and BCRP-mediated [^3H]-E1S uptake. […] Uptake was stopped by placing the samples on ice and the addition of 150 µl ice cold TS buffer. Subsequently, the samples were transferred to a 96 well filter plate (Millipore, Etten-leur, the Netherlands) pre-incubated with TS buffer and filtered using a Multiscreen HTS-Vacuum Manifold filtration device (Millipore). Afterwards, 2 ml of scintillation liquid was added to each filter and radioactivity was determined using liquid scintillation counting. As negative controls ATP was substituted for AMP and EYFP-membrane vesicles were used. Each experiment was performed in triplicates.
Differences between groups were considered to be statistically significant when p<0.05. The mean IC50 and IC20 values were calculated from the inhibition curves used for the Dixon analysis and to determine the inhibition constant (Ki) from the Dixon plots. Transport inhibition studies were performed in triplicate and repeated at least three times.

[1] = plasma of CKD patients, cited from earlier work
[2] = IC50 (concentration inhibiting 50% of transport by MRP4), MRP4-mediated [3H]-MTX uptake
[3] = IC50, [3H]-MTX uptake into MRP4 membrane vesicles, 10 min, 37°C, mean ± SEM of three experiments
[4] = membrane vesicles from HEK293 cells overexpressing MRP4, pH 7, probe [3H]-methotrexate ([3H]-MTX)

Row | SMILES | Ki (MRP4) [µM] | Mode of inhibition of MRP4-mediated transport (MRP4) | IC50 (MRP4; [3]) [µM] | IC20 at 10 min (MRP4; [4]) [µM] | Effect on transport mediated by MRP4 (MRP4) | Decrease of MRP4-mediated transport compared to control (MRP4) [%] | also measured
1 | O=C(O)CNC(=O)c1ccccc1 [hippuric acid] | 2500 ± 50 | non-competitive | 990 ± 180 | 350 ± 20 | – | – | IC50 (MRP4; [2]): 2500 µM; Cu, highest mean/median uremic concentration ([1]; ref www.uremic-toxins.org [19]): 1380 µM; Cu, highest median uremic concentration ([1]; ref www.uremic-toxins.org [19]): 1.4 mM; Cmax ([1]; ref www.uremic-toxins.org [19], read-out: Cmax, maximal uremic concentration): 2600 µM
2 | O=C(O)Cc1c[nH]c2ccccc12 [indole-3-acetic acid] | 2000 ± 70 | non-competitive | 1795 ± 8 | 570 ± 30 | – | – | –
3 | O=S(=O)(O)Oc1c[nH]c2ccccc12 [indoxyl sulfate] | 1000 ± 90 | non-competitive | – | 530 ± 70 | – | – | IC50 (MRP4): 1750 ± 110 µM; Cu, highest mean/median uremic concentration ([1]; ref www.uremic-toxins.org [19]): 211 µM
4 | O=C(O)c1cc(=O)c2ccccc2[nH]1 [kynurenic acid] | 25 ± 2 | – | – | 1.5 ± 0.3 | – | – | IC50 (MRP4): 8 ± 1 µM
5 | O=C(O)C(=O)O [oxalate] | – | – | – | – | did not alter transport | ≤ 10 | –
6 | Cc1ccc(O)cc1 [p-cresol] | – | – | – | – | did not alter transport | ≤ 10 | –
7 | Cc1ccc(S(=O)(=O)O)cc1 [p-toluenesulfonic acid, reference compound] | – | – | – | – | did not alter transport | ≤ 10 | –
8 | O=C(O)Cc1ccccc1 [phenylacetic acid] | – | – | 7100 ± 1600 | – | – | – | IC50 (MRP4; [2]): 7000 µM; IC20 at 10 min (MRP4; pH 7): 1600 ± 170 µM; Cu, highest median plasma concentration [1]: 3.5 mM; Cu, highest mean/median uremic concentration ([1]; obtained from literature): 3490 ^a µM
9 | NCCCCN [putrescine] | – | – | – | – | did not alter transport | ≤ 10 | –
10 | O=C(O)c1cccnc1C(=O)O [quinolinic acid] | – | – | – | – | did not alter transport | ≤ 10 | –
